The values that follow come from patent US6180664A (priority 1996, dated 2001).

Test [1] has as its system isolated rabbit aortic rings. As to the kind of experiment: tissue or blood.
In test [2] the test system is blood. To be noted: cited from earlier work.

As for `CCOC(=O)C(CO[N+](=O)[O-])(CO[N+](=O)[O-])C(=O)OCC` [Bis-MA diethyl ester, Diethyl 2,2-bis(nitryloxymethyl)malonate], in test [1] (Oryctolagus cuniculus, read-out: pD2 value (converted)), the EC50 was 251 nM.
Take `O=[N+]([O-])OCC(CO)(CO)CO` [PEMN, pentaerythrityl mononitrate]: in test [1], the pD2 value stood at 5.
As for `CCCCCCCCCCCCCCCCOCC(COP(=O)([O-])OCC[N+](C)(C)C)OC(C)=O` (stereo not shown) [platelet activation factor], in test [2], the “concentration inducing platelet aggregation” value is on record as 0.1 nM and the concentration inducing vasodilation was 0.1 nM.
